≈ marks a conversion by molar mass, not a printed value.
Tests used:
Experiment in all cases: In vitro antibacterial activity, agar plate dilution method (MIC)
K.oxytoca GN10650 = assay type: cell-based; conditions: Klebsiella oxytoca; K.oxytoca GN10650 (β-Lactamase-producing strain); Mueller Hinton agar, inoculum 10⁶ CFU/ml, 37°C, 16 hours; read-out: Minimum Inhibitory Concentration (MIC: µg/ml)
Protocol: (§1) The in vitro antibacterial activities of the compounds of the present invention against various microorganisms, were measured by the following agar plate dilution method. One platinum loopfull of each test microorganism incubated overnight in Mueller Hinton broth, was inoculated to Mueller Hinton agar (inoculum size: l0⁶ CFU/ml). Such culture media containing various antibiotics in various concentrations were prepared. After incubation at 37°C for l6 hours, the minimum inhibitory concentrations (MIC: µg/ml) were measured. As comparative compounds, Cefotaxime, Ceftazidime and the compounds of Reference Examples l to 4 were employed.

M.morganii GN5407 = assay type: cell-based; conditions: Morganella morganii; M.morganii GN5407 (β-Lactamase-producing strain); Mueller Hinton agar, inoculum 10⁶ CFU/ml, 37°C, 16 hours; read-out: Minimum Inhibitory Concentration (MIC: µg/ml)
Protocol: as §1

E.coli NIHJ JC2 = assay type: cell-based; conditions: Escherichia coli, NIHJJC2; E.coli NIHJ JC2; Mueller Hinton agar, inoculum 10⁶ CFU/ml, 37°C, 16 hours; read-out: Minimum Inhibitory Concentration (MIC: µg/ml)
Protocol: as §1

C.freundii GN346 = assay type: cell-based; conditions: Citrobacter freundii; C.freundii GN346 (β-Lactamase-producing strain); Mueller Hinton agar, inoculum 10⁶ CFU/ml, 37°C, 16 hours; read-out: Minimum Inhibitory Concentration (MIC: µg/ml)
Protocol: as §1

C.freundii GN346/16 = assay type: cell-based; conditions: Citrobacter freundii; C.freundii GN346/16; Mueller Hinton agar, inoculum 10⁶ CFU/ml, 37°C, 16 hours; read-out: Minimum Inhibitory Concentration (MIC: µg/ml)
Protocol: as §1

P.vulgaris HX-19 = assay type: cell-based; conditions: Proteus vulgaris, HX19; P.vulgaris HX-19; Mueller Hinton agar, inoculum 10⁶ CFU/ml, 37°C, 16 hours; read-out: Minimum Inhibitory Concentration (MIC: µg/ml)
Protocol: as §1

P.vulgaris No. 33 = assay type: cell-based; conditions: Proteus vulgaris; P.vulgaris No. 33 (β-Lactamase-producing strain); Mueller Hinton agar, inoculum 10⁶ CFU/ml, 37°C, 16 hours; read-out: Minimum Inhibitory Concentration (MIC: µg/ml)
Protocol: as §1

S.marcescens IAM 1184 = assay type: cell-based; conditions: Serratia marcescens, IAM1184; S.marcescens IAM 1184; Mueller Hinton agar, inoculum 10⁶ CFU/ml, 37°C, 16 hours; read-out: Minimum Inhibitory Concentration (MIC: µg/ml)
Protocol: as §1

Ps.aeruginosa IFO3445 = assay type: cell-based; conditions: Pseudomonas aeruginosa; Ps.aeruginosa IFO3445; Mueller Hinton agar, inoculum 10⁶ CFU/ml, 37°C, 16 hours; read-out: Minimum Inhibitory Concentration (MIC: µg/ml)
Protocol: as §1

K.pneumoniae No. 42 = assay type: cell-based; conditions: Klebsiella pneumoniae; K.pneumoniae No. 42 (β-Lactamase-producing strain); Mueller Hinton agar, inoculum 10⁶ CFU/ml, 37°C, 16 hours; read-out: Minimum Inhibitory Concentration (MIC: µg/ml)
Protocol: as §1

K.pneumoniae PCI-602 = assay type: cell-based; conditions: Klebsiella pneumoniae, PCI602; K.pneumoniae PCI-602; Mueller Hinton agar, inoculum 10⁶ CFU/ml, 37°C, 16 hours; read-out: Minimum Inhibitory Concentration (MIC: µg/ml)
Protocol: as §1

E.coli GN5482 = assay type: cell-based; conditions: Escherichia coli; E.coli GN5482 (β-Lactamase-producing strain); Mueller Hinton agar, inoculum 10⁶ CFU/ml, 37°C, 16 hours; read-out: Minimum Inhibitory Concentration (MIC: µg/ml)
Protocol: as §1

E.coli CSH2 (RK1) = assay type: cell-based; conditions: Escherichia coli, 16 h, read-out: Minimum Inhibitory Concentration (MIC: µg/ml)
Protocol: as §1

S.marcescens No. 16-2 = assay type: cell-based; conditions: Serratia marcescens, NO.162; S.marcescens No. 16-2 (β-Lactamase-producing strain); Mueller Hinton agar, inoculum 10⁶ CFU/ml, 37°C, 16 hours; read-out: Minimum Inhibitory Concentration (MIC: µg/ml)
Protocol: as §1

E.cloacae 963 = assay type: cell-based; conditions: Enterobacter cloacae; E.cloacae 963; Mueller Hinton agar, inoculum 10⁶ CFU/ml, 37°C, 16 hours; read-out: Minimum Inhibitory Concentration (MIC: µg/ml)
Protocol: as §1

M.luteus ATCC9341 = assay type: cell-based; conditions: Micrococcus luteus; M.luteus ATCC9341; Mueller Hinton agar, inoculum 10⁶ CFU/ml, 37°C, 16 hours; read-out: Minimum Inhibitory Concentration (MIC: µg/ml)
Protocol: as §1

S.aureus BB5703 = assay type: cell-based; conditions: Staphylococcus aureus; S.aureus BB5703; Mueller Hinton agar, inoculum 10⁶ CFU/ml, 37°C, 16 hours; read-out: Minimum Inhibitory Concentration (MIC: µg/ml)
Protocol: as §1

S.aureus 209P NIHJ-JC1 = assay type: cell-based; conditions: Staphylococcus aureus; S.aureus 209P NIHJ-JC1; Mueller Hinton agar, inoculum 10⁶ CFU/ml, 37°C, 16 hours; read-out: Minimum Inhibitory Concentration (MIC: µg/ml)
Protocol: as §1

Ps.aeruginosa AK 109 = assay type: cell-based; conditions: Pseudomonas aeruginosa, AK109; Ps.aeruginosa AK 109; Mueller Hinton agar, inoculum 10⁶ CFU/ml, 37°C, 16 hours; read-out: Minimum Inhibitory Concentration (MIC: µg/ml)
Protocol: as §1

E.coli CSH(RE45) = assay type: cell-based; conditions: Escherichia coli, 16 h, read-out: Minimum Inhibitory Concentration (MIC: µg/ml)
Protocol: as §1

A.calcoaceticus No. 4 = assay type: cell-based; conditions: Acinetobacter calcoaceticus; A.calcoaceticus No. 4; Mueller Hinton agar, inoculum 10⁶ CFU/ml, 37°C, 16 hours; read-out: Minimum Inhibitory Concentration (MIC: µg/ml)
Protocol: as §1

S.epidermidis IAM12012 = assay type: cell-based; conditions: Staphylococcus epidermidis; S.epidermidis IAM12012; Mueller Hinton agar, inoculum 10⁶ CFU/ml, 37°C, 16 hours; read-out: Minimum Inhibitory Concentration (MIC: µg/ml)
Protocol: as §1

S.aureus JS1 = assay type: cell-based; conditions: Staphylococcus aureus; S.aureus JS1 (β-Lactamase-producing strain); Mueller Hinton agar, inoculum 10⁶ CFU/ml, 37°C, 16 hours; read-out: Minimum Inhibitory Concentration (MIC: µg/ml)
Protocol: as §1

E.cloacae Nek 39 = assay type: cell-based; conditions: Enterobacter cloacae, NEK39; E.cloacae Nek 39 (β-Lactamase-producing strain); Mueller Hinton agar, inoculum 10⁶ CFU/ml, 37°C, 16 hours; read-out: Minimum Inhibitory Concentration (MIC: µg/ml)
Protocol: as §1

Ps.aeruginosa AKR17 = assay type: cell-based; conditions: Pseudomonas aeruginosa; Ps.aeruginosa AKR17; Mueller Hinton agar, inoculum 10⁶ CFU/ml, 37°C, 16 hours; read-out: Minimum Inhibitory Concentration (MIC: µg/ml)
Protocol: as §1

Ps.maltophilia GN 12873 = assay type: cell-based, Pseudomonas maltophilia; conditions: Stenotrophomonas maltophilia, GN12873; Ps.maltophilia GN 12873 (β-Lactamase-producing strain); Mueller Hinton agar, inoculum 10⁶ CFU/ml, 37°C, 16 hours; read-out: Minimum Inhibitory Concentration (MIC: µg/ml)
Protocol: as §1

Ps.cepacia 23 = assay type: cell-based, Pseudomonas cepacia; conditions: Burkholderia cepacia; Ps.cepacia 23; Mueller Hinton agar, inoculum 10⁶ CFU/ml, 37°C, 16 hours; read-out: Minimum Inhibitory Concentration (MIC: µg/ml)
Protocol: as §1

| SMILES | MIC (K.oxytoca GN10650) [µg/mL] | MIC (M.morganii GN5407) [µg/mL] | MIC (E.coli NIHJ JC2) [µg/mL] | MIC (C.freundii GN346) [µg/mL] | MIC (C.freundii GN346/16) [µg/mL] | MIC (P.vulgaris HX-19) [µg/mL] | MIC (P.vulgaris No. 33) [µg/mL] | MIC (S.marcescens IAM 1184) [µg/mL] | MIC (Ps.aeruginosa IFO3445) [µg/mL] | MIC (K.pneumoniae No. 42) [µg/mL] | MIC (K.pneumoniae PCI-602) [µg/mL] | MIC (E.coli GN5482) [µg/mL] | MIC (E.coli CSH2 (RK1)) [µg/mL] | MIC (S.marcescens No. 16-2) [µg/mL] | MIC (E.cloacae 963) [µg/mL] | MIC (S.aureus BB5703) [µg/mL] | MIC (S.aureus 209P NIHJ-JC1) [µg/mL] | MIC (Ps.aeruginosa AK 109) [µg/mL] | MIC (E.coli CSH(RE45)) [µg/mL] | MIC (A.calcoaceticus No. 4) [µg/mL] | also measured |
| --- | --- | --- | --- | --- | --- | --- | --- | --- | --- | --- | --- | --- | --- | --- | --- | --- | --- | --- | --- | --- | --- |
| CO/N=C(\C(=O)N[C@@H]1C(=O)N2C(C(=O)O)=C(COC(C)=O)CS[C@H]12)c1csc(N)n1 [Cefotaxime, reference compound] | 0.78 (≈ 1.71 µM) | 0.05 (≈ 0.11 µM) | 0.05 (≈ 0.11 µM) | 25 (≈ 54.9 µM) | 0.1 (≈ 0.22 µM) | < 0.006 | 0.025 (≈ 0.0549 µM) | 0.05 (≈ 0.11 µM) | 3.12 (≈ 6.85 µM) | 0.05 (≈ 0.11 µM) | < 0.006 | 0.39 (≈ 0.856 µM) | 0.05 (≈ 0.11 µM) | 25 (≈ 54.9 µM) | 0.1 (≈ 0.22 µM) | 3.12 (≈ 6.85 µM) | 1.56 (≈ 3.43 µM) | 12.5 (≈ 27.4 µM) | 0.2 (≈ 0.439 µM) | 25 (≈ 54.9 µM) | MIC (M.luteus ATCC9341): 0.05 µg/mL (≈ 0.11 µM); MIC (S.epidermidis IAM12012): 0.39 µg/mL (≈ 0.856 µM); MIC (S.aureus JS1): 25 µg/mL (≈ 54.9 µM); MIC (E.cloacae Nek 39): 3.12 µg/mL (≈ 6.85 µM); MIC (Ps.aeruginosa AKR17): > 100 µg/mL; MIC (Ps.maltophilia GN 12873): > 100 µg/mL; MIC (Ps.cepacia 23): 6.25 µg/mL (≈ 13.7 µM) |
| CON=C(C(=O)NC1C(=O)N2C(C(=O)[O-])=C(C[n+]3ccc4c(O)cccc4c3)CS[C@H]12)c1csc(N)n1 (stereo partly drawn) [Reference Ex. 2, 7-[2-(2-aminothiazol-4-yl)-2-methoxyiminoacetamido]-3-(5-hydroxy-2-isoquinolinio)methyl-3-cephem-4-carboxylate, reference compound] | 12.5 (≈ 23.1 µM) | 0.025 (≈ 0.0462 µM) | 0.025 (≈ 0.0462 µM) | 6.25 (≈ 11.6 µM) | 0.1 (≈ 0.185 µM) | < 0.006 | 0.1 (≈ 0.185 µM) | 0.025 (≈ 0.0462 µM) | 3.12 (≈ 5.77 µM) | 0.1 (≈ 0.185 µM) | < 0.006 | 0.2 (≈ 0.37 µM) | 0.025 (≈ 0.0462 µM) | 3.12 (≈ 5.77 µM) | 0.025 (≈ 0.0462 µM) | 3.12 (≈ 5.77 µM) | 0.39 (≈ 0.721 µM) | 3.12 (≈ 5.77 µM) | 1.56 (≈ 2.89 µM) | 12.5 (≈ 23.1 µM) | MIC (S.aureus JS1): 6.25 µg/mL (≈ 11.6 µM); MIC (E.cloacae Nek 39): 0.78 µg/mL (≈ 1.44 µM); MIC (Ps.aeruginosa AKR17): > 100 µg/mL; MIC (Ps.maltophilia GN 12873): > 100 µg/mL; MIC (Ps.cepacia 23): 6.25 µg/mL (≈ 11.6 µM) |
| CON=C(C(=O)NC1C(=O)N2C(C(=O)[O-])=C(C[n+]3ccc4cccc(O)c4c3)CS[C@H]12)c1csc(N)n1 (stereo partly drawn) [Reference Ex. 3, 7-[2-(2-aminothiazol-4-yl)-2-methoxyiminoacetamido]-3-(8-hydroxy-2-isoquinolinio)methyl-3-cephem-4-carboxylate, reference compound] | 3.12 (≈ 5.77 µM) | 0.025 (≈ 0.0462 µM) | 0.05 (≈ 0.0925 µM) | 12.5 (≈ 23.1 µM) | 0.1 (≈ 0.185 µM) | 0.0125 (≈ 0.0231 µM) | 0.05 (≈ 0.0925 µM) | 0.025 (≈ 0.0462 µM) | 12.5 (≈ 23.1 µM) | 0.1 (≈ 0.185 µM) | < 0.006 | 0.39 (≈ 0.721 µM) | 0.025 (≈ 0.0462 µM) | 3.12 (≈ 5.77 µM) | 0.05 (≈ 0.0925 µM) | 3.12 (≈ 5.77 µM) | 0.78 (≈ 1.44 µM) | 50 (≈ 92.5 µM) | 0.39 (≈ 0.721 µM) | 25 (≈ 46.2 µM) | MIC (S.aureus JS1): 25 µg/mL (≈ 46.2 µM); MIC (E.cloacae Nek 39): 0.78 µg/mL (≈ 1.44 µM); MIC (Ps.aeruginosa AKR17): > 100 µg/mL; MIC (Ps.maltophilia GN 12873): > 100 µg/mL; MIC (Ps.cepacia 23): 6.25 µg/mL (≈ 11.6 µM) |
| CC(C)(ON=C(C(=O)NC1C(=O)N2C(C(=O)[O-])=C(C[n+]3ccc4c(O)cccc4c3)CSC12)c1csc(N)n1)C(=O)O (stereo not drawn) [Reference Ex. 4, sodium 7-[2-(2-aminothiazol-4-yl)-2-(l-carboxylato-l-methylethoxyimino)acetamido]-3-(5-hydroxy-2-isoquinolinio)methyl-3-cephem-4-carboxylate, reference compound] | 0.39 | 0.1 | 0.78 | > 100 | 1.56 | 0.0125 | 0.1 | 0.2 | 6.25 | 0.78 | 0.2 | 6.25 | 0.39 | 6.25 | 0.78 | 100 | 12.5 | 6.25 | 0.39 | 25 | MIC (S.aureus JS1): 100 µg/mL; MIC (E.cloacae Nek 39): 12.5 µg/mL; MIC (Ps.aeruginosa AKR17): > 100 µg/mL; MIC (Ps.maltophilia GN 12873): 50 µg/mL; MIC (Ps.cepacia 23): 1.56 µg/mL |
